Target: CDK9 (Homo sapiens, UniProt P50750)
Test: DSF thermal shift
Format: binding

Chain of CDK9 (P50750 1-330): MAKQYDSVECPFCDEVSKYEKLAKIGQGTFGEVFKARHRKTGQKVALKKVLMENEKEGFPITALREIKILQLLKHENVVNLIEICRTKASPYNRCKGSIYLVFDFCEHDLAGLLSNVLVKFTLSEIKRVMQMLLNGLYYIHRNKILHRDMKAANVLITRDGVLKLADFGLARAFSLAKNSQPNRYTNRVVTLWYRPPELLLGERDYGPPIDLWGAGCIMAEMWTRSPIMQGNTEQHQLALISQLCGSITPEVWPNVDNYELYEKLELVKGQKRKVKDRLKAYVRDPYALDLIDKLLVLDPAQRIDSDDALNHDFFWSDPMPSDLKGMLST
Chain of CDK9 (O60563 1-259 partner): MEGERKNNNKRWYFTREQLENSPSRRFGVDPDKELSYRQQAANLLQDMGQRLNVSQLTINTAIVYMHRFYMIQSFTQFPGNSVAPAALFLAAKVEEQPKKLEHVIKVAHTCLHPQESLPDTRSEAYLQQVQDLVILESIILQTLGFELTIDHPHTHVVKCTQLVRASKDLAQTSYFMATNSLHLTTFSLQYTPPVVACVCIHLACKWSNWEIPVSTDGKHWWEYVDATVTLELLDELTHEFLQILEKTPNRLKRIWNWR

OC[C@H]1O[C@@H](n2cnc3cc(Cl)c(Cl)cc32)[C@H](O)[C@@H]1O [DRB]
DSF thermal shift (no Kd): we tested the ability of known CDK9 inhibitors (DRB, CAN508, (S)-CR8, Roscovitine, Staurosporine

Reference: paper PMC3355656 (2012)
